Measurements from patent publication US20240262845A1, “PYRIDINIUM SALTS, METHODS OF MAKING, AND METHODS OF USE” (UNIVERSITY OF WYOMING, priority 2023, published 2024).
Entries after “also recorded” stand apart in the source; their conditions may differ. Where a name gives a salt, the structure may show the parent alone.

Key:
Leuprolide = assay: Photochemical labeling of leuprolide with pyridinium salt (General Procedure B, LC/MS); format: biochemical; conditions: 10 μM leuprolide, 100 μM pyridinium salt, 300 μM glutathione, 30 min
Procedure: General Procedure B: Photochemical Irradiation of Peptides and Proteins: To a 2 mL Pyrex LC/MS vial (Thermo model #03-391-39) were sequentially added solutions containing the desired biomolecule, glutathione (GSH), pyridinium salt, and ammonium acetate (NH4OAc). The resulting solution was diluted to a final volume of 500 μL and then sparged using nitrogen for a minimum of 30 minutes prior to irradiation. The actively sparging solution was then placed in an EvoluChem™ PhotoRedOx Box photoreactor that was equipped with a Kessil, PR160 427 nm LED Lamp and was then irradiated (100% lamp intensity) for the designated time at room temperature while maintaining active sparging. The resultant reaction mixture was then analyzed directly by LC/MS. Analysis of labeling outcomes using LC/MS was performed either by extracted ion chromatogram intensities (method A) or by integrating the area under the peaks associated with peptide content (method B). These values were totaled, and estimated percentages were assigned according to relative intensities of peaks or ion counts.
Labeling of Leuprolide with Pyridinium Salt 2a (Leuprolide-2a Conjugate). […] The reaction mixture was analyzed directly by LC/MS using method B and was estimated to have proceeded with 91% conversion, a >20:1 mono:di labeled ratio, and 4% of +1 label+glutathionylation. […]

HEK293T lysates = assay: Chemoproteomic profiling of HEK293T lysates (protein-level enrichment); format: biochemical, human
Procedure: In lysate tryptophan probe treatment for protein-level characterization: HEK293T cell pellets were suspended in native lysis buffer (50 mM HEPES pH 7.5, 150 mM sodium chloride (NaCl), 1.5 mM MgCl2, 1 mM DTT, 0.8% NP-40, 5% glycerol, and 1× protease inhibitors (Thermo)) at 2× the pellet volume. The samples were sonicated on ice for 30 seconds at 20% amplitude with a 2 second pulse ON and 3 second pulse OFF. Cell debris was removed by centrifugation at 20,000×g for 20 minutes at 4° C. Protein concentration was determined by bicinchoninic acid (BCA) (Pierce) and diluted down to 5 mg/mL with ChemProt buffer (50 mM HEPES pH 7.5, 150 mM NaCl, 1.5 mM MgCl2, 1 mM DTT, 0.4% NP-40, and 1x protease inhibitors (Thermo). 5 mg cell lysates were treated with 100× stocks of the tryptophan probes (pyridinium salts 1a, 1b, and 2b) to generate final concentrations (0, 1, 10, and 100 μM) in 1% DMSO. Lysates were incubated for 1 hour at 4° C. followed by photo-activation at respective wavelengths for 20 minutes at 4° C. Excess probe was removed using Sephadex G-25 PD-10 desalting columns (GE Healthcare) pre-equilibrated with 50 mM HEPES pH 7.5, 150 mM NaCl, 1.5 mM MgCl2, and 0.4% NP-40. The samples were then treated with 100 μL Neutravidin resin as a 50% slurry (Peirce). The samples were incubated overnight on a rotating apparatus at R.T. The following day, the beads were transferred to a MobiCol column (Boca Scientific), washed 3× with phosphate buffered saline (PBS) containing 0.2% SDS, washed 3× with PBS, and the enriched proteins were eluted with 2× NuPAGE lithium dodecyl sulfate (LDS) containing 10 mM DTT (Pierce) and heated for 30 minutes at 55° C. The eluent was collected and subsequently treated with 20 mM iodoacetamide (Pierce) for 30 minutes at R.T. protected from light. Samples were passed through detergent removal columns (Pierce) that were pre-equilibrated with 50 mM HEPES pH 8.0. The samples were treated with 2.5 μg Trypsin/LysC (Promega) at 37° C. for 16 hours. The following day, the sample was collected and prepped for isobaric labeling with TMT reagents (Thermo) as specified by the manufacturer.
Quantitative proteomics by two-dimensional nano liquid chromatography-tandem mass spectrometry (nLC-MS/MS): For protein-level characterization, the TMT-labeled sample were reconstituted in 0.1% formic acid (FA)/2% acetonitrile for offline high-pH reversed phase separation (RP10) using a Dionex UltiMate 3000 high-performance liquid chromatography (HPLC) system with fraction collection using Chromeleon v.6.8 (Thermo) software. Separation was achieved on a Waters Xbridge C18 3.5 μm 2.1×150 mm HPLC column (Waters) using a flow rate of 250 μL min-1 and the following ternary gradient and conditions: mobile phase A=water (HPLC grade), mobile phase B=acetonitrile (HPLC grade), and mobile phase C=200 mM ammonium acetate, pH 10. Mobile phase C is held at 10% throughout gradient. Starting conditions are 89% mobile phase A and 1% mobile phase B, ramping mobile phase B to 80% over 65 min. Fractions were collected in 96-well plates at 100 sec per well. Fractions were reduced down to 12 fractions, dried, and reconstituted in 0.1% FA/2% acetonitrile for nLC-MS/MS. All data were acquired using a Orbitrap Fusion Lumos coupled to an Easy-nLC 1200 nanoflow liquid chromatograph operating at 300 nL min-1. Peptides were cleaned up using a 1 cm online custom trap then eluted on a custom 20 cm laser pulled 75 μm column with C18 resin. Peptides were quantified using the synchronous precursor selection (SPS-MS3) or HCD method for TMT quantitation with 120k MS1 resolving power, 50 ms max injection time and 100% AGC. MS2 spectra were selected using the top ten most abundant features with a charge state between 2-6 using CID (collision induced dissociation) in the ion trap. The AGC was set to 100% with an isolation width of 0.7. MS3 was performed on the top 10 most abundant MS2 features between 400-1600 amu with a collision energy of 55%, AGC of 250%, and 50k resolution. […]

Row | SMILES | +1 label+glutathionylation (Leuprolide) | Western blot (streptavidin-HRP) proteome labeling profile of elutions (HEK293T lysates; 0-100 μM probe, with/without light, before digestion) | percentage of unique enriched proteins (proteome coverage comparison of probes) (HEK293T lysates; 100 μM probe, FIG. 17B) | number of proteins identified (from ≥2 unique peptides) showing ≥2-fold enrichment versus DMSO (HEK293T lysates; about 100 μM probe, 5 mg/mL lysate, 60 min incubation, 20 min irradiation: 302 nm (1a), 320 nm (1b), 440 nm (2b))
1 | COC(=O)N(C)[n+]1c(C)cc(-c2ccc3cc(OC)ccc3c2)cc1C [pyridinium salt 2a, 1-((methoxycarbonyl)(methyl)amino)-4-(6-methoxynapthalen-2-yl)-2,6-dimethylpyridin-1-ium tetrafluoroborate] | 4% | – | – | –
2 | COc1ccc2cc(-c3cc(C)[n+](N(C)C(=O)OCCCCC[C@H]4SC[C@H]5NC(=O)N[C@H]54)c(C)c3)ccc2c1 (stereo in doubt) [pyridinium salt 2b, 4-(6-methoxynaphthalen-2-yl)-2,6-dimethyl-1-(methyl(((5-((3aR,4R,6aS)-2-oxohexahydro-1H-thieno[3,4-d]imidazol-4-yl)pentyl)oxy)carbonyl)amino)pyridin-1-ium tetrafluoroborate] | – | concentration and optically dependent proteome labeling profiles; also recorded: dose-response profiles | about 69% | 523
